For orientation: IC50 means the concentration that gives 50% inhibition. For orientation: EC50 means the concentration that produces a half-maximal response. As usually defined, the CC50 is the concentration at which the toxic effect on the cells reaches its halfway point. As a reminder, the AC50 is the concentration at which the activity in the assay is half-maximal.

Active and inactive are the calls of the source.

Experiment [1] concerns the target Neuropeptide Y receptor type 1 (Homo sapiens, UniProt P25929). It counts as functional.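 Also: HEK293 cells with a CNG channel challenged with NPY then isoproterenol; potency as antagonist that reverses NPY suppression of cAMP signal.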
Experiment [2] concerns the target Neuropeptide Y receptor type 2 (Homo sapiens, UniProt P49146). The format is functional, cell-based.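 Also: HEK293 cells expressing the receptor and a CNG channel; stimulus was NPY near EC95 followed by isoproterenol to raise cAMP; antagonist potency measured as restoring cAMP signal that NPY suppresses.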
The target of experiment [3] is T1, Protein skinhead-1 (Caenorhabditis elegans, UniProt P34707).
T1 sequence (P34707 whole entry): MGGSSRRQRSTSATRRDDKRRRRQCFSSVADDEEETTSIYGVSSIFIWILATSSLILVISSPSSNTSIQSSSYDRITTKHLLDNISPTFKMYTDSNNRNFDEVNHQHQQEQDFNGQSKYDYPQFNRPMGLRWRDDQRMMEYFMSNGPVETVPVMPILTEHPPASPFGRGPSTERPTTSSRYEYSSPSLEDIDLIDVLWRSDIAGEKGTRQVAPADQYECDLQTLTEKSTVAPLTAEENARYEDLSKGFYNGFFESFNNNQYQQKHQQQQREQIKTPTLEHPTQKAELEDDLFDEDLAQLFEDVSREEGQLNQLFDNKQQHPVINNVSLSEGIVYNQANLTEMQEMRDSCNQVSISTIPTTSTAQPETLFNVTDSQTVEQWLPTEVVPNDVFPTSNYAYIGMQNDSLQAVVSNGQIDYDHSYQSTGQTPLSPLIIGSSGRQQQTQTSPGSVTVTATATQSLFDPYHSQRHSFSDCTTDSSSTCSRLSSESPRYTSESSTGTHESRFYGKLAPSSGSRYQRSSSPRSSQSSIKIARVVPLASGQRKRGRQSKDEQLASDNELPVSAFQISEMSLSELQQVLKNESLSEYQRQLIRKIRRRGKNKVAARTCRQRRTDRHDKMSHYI
The format is functional.

The target in experiment [4] is Estrogen receptor (Homo sapiens, UniProt P03372).
Experiment [5] deals with T2, Estrogen receptor beta (Homo sapiens, UniProt Q92731).
Experiment [6] has as its target T2, Estrogen receptor beta. Nature of the experiment: blockers of SRC-3 recruitment to ERβ – biochemical, ELISA, streptavidin-HRP readout, orthogonal assay, confirmation (AID 1060).
Experiment [7] has as its target T3, E3 ubiquitin-protein ligase XIAP (Homo sapiens, UniProt P98170). Put plainly: Counter Screen using XIAP-Bir3 for Chemical Antagonists of Bir1/2 domains of IAP-family anti-apoptotic proteins. [Related pubchem assays (depositor defined):AID1018, AID1449, AID1514, AID1638, AID1749, AID1750, AID488957, AID488963]. On the technique in general: Counterscreens check selectivity or assay interference.

Experiment [8] addresses T3, E3 ubiquitin-protein ligase XIAP. Put plainly: small molecules displacing peptide from XIAP – biochemical, IAP family, fluorescence polarization (AID 1018). It counts as functional.
The test system of experiment [9] is H9c2. Put plainly: cells. It counts as functional, cell-based. To be noted: Rattus norvegicus, H9c2, Myocardium.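 Also: confirmatory concentration-response retest of ultra-high-throughput screening hits for modulation of myocardial damage; cell death induced by hydrogen peroxide oxidative stress; compound pretreatment for 60 min then peroxide exposure for 2 h; potency is for protecting the cells against peroxide damage rather than for killing them.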
The target of experiment [10] is Sphingosine 1-phosphate receptor 2 (Homo sapiens, UniProt O95136). Nature of the experiment: Dose Response Cell Based Assay for Agonists of the S1P2 Receptor of Purchased Analogues. [Related pubchem assays: 729, 843, 854, 736 ]. The format is functional.
A short description of experiment [11]: NIH-3T3 fibroblast cytotoxicity, dose response, cytotoxicity control, cell-based, fluorescence, Alamar Blue, secondary assay (AID 2327).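 Also: NIH-3T3 mouse fibroblasts cultured with fluconazole at 8 µg/mL.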 It counts as functional. Background: The colour change of resazurin is a common sign of viable cells or microbes.
The target in experiment [12] is Eukaryotic translation initiation factor 4H (Homo sapiens, UniProt Q15056). Nature of the experiment: eIF4H binding inhibition – biochemical, uHTS, fluorescence polarization, translation initiation inhibitor project, primary screen (AID 2012). (Fluorescence polarisation rises when a labelled molecule tumbles more slowly, as on binding a larger partner.)
Experiment [13] in a line: fluconazole-exposed Candida albicans growth modulators – fluorescence, retest, confirmation (AID 2467). The format is functional, cell-based.
The target in experiment [14] is Luciferin 4-monooxygenase (Photinus pyralis, UniProt P08659). Put plainly: inhibition of purified Photinus pyralis luciferase – biochemical, luminescence, dose response (AID 1891).
Experiment [15] in a line: Luminescence Cell-Based Dose Confirmation HTS to Identify Inhibitors of Platelet Dense Granule Release. [Related pubchem assays: 1663 (Primary HTS), 1678 (Summary of Project)]. It counts as functional.
In experiment [16] the target is T4, Mannose-6-phosphate isomerase (Homo sapiens, UniProt P34949).
T4 sequence (P34949 whole entry): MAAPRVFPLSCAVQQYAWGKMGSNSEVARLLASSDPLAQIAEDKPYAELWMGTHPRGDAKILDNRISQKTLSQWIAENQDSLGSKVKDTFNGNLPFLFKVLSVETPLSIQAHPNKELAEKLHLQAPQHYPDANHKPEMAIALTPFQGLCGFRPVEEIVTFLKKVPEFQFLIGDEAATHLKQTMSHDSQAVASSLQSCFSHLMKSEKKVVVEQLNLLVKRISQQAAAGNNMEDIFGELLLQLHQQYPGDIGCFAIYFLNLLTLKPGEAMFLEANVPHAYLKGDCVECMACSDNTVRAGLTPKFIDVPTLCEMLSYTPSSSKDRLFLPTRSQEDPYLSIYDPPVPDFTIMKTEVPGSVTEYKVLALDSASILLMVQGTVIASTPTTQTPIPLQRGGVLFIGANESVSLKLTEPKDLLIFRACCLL
Nature of the experiment: MPI enzyme activity inhibition – biochemical, fluorescence intensity, coupled assay, primary screen (AID 1209).

Experiment [17] addresses Induced myeloid leukemia cell differentiation protein Mcl-1 (Homo sapiens, UniProt Q07820). It counts as functional.
Experiment [18] deals with Polyadenylate-binding protein 1 (Homo sapiens, UniProt P11940). Put plainly: blockers of PABP interaction with poly(A) – biochemical, fluorescence polarization, […] (AID 2014).
The test system of experiment [19] is Vero. Nature of the experiment: viability of Vero cells under compound – cytotoxicity control for flavivirus capping enzyme inhibitors (AID 588742). The format is functional. To be noted: Chlorocebus sabaeus.
The target of experiment [20] is Genome polyprotein (dengue virus type 2, UniProt P29990). Nature of the experiment: flavivirus cap methylation enzyme inhibition – biochemical, confirmation dose response, primary screen (AID 588689). It counts as functional.
Experiment [21] addresses T5, Long-chain-fatty-acid--AMP ligase FadD28 (Mycobacterium tuberculosis, UniProt P9WQ59).
T5 sequence (P9WQ59 whole entry): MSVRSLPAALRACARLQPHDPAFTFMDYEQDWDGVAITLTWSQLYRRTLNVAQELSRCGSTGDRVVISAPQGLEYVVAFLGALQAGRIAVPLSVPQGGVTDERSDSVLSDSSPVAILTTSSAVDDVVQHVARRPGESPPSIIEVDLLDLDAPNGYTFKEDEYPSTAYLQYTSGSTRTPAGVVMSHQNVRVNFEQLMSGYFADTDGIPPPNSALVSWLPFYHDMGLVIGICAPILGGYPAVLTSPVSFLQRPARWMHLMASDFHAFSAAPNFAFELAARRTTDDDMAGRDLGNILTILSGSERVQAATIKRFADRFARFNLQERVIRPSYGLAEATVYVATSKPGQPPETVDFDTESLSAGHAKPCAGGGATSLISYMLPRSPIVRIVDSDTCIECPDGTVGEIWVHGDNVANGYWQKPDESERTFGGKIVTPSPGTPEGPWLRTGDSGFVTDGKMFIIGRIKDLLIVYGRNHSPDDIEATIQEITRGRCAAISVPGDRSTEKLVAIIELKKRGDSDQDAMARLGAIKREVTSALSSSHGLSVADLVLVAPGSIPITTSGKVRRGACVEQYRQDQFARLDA
Nature of the experiment: Fluorescence polarization aasay to screen for inhibitors that compete for the binding of FadD28 to a bisubstrate Measured in Biochemical System Using Plate Reader - 2147-01_Inhibitor_Dose_CherryPick_Activity. It counts as functional, Mycobacterium tuberculosis H37Rv.

Experiment [22] addresses Protein Tat (Human immunodeficiency virus type 1 group M subtype B (isolate HXB2)(HIV-1), UniProt P04608). It counts as functional.
Experiment [23] can be described thus: viability loss in THP-1 monocytes – THP-1 cells, cytotoxicity control for Vif-APOBEC3G degradation inhibitor project, dose response (AID 1117359). The conditions noted are these: THP-1. It counts as functional.
Experiment [24] is described as follows: viability loss in Vero cells – cytotoxicity control for Vif-APOBEC3G degradation inhibitor project, dose response (AID 1117358). The format is functional. The conditions noted are these: Vero.

T3 sequence (P98170 whole entry): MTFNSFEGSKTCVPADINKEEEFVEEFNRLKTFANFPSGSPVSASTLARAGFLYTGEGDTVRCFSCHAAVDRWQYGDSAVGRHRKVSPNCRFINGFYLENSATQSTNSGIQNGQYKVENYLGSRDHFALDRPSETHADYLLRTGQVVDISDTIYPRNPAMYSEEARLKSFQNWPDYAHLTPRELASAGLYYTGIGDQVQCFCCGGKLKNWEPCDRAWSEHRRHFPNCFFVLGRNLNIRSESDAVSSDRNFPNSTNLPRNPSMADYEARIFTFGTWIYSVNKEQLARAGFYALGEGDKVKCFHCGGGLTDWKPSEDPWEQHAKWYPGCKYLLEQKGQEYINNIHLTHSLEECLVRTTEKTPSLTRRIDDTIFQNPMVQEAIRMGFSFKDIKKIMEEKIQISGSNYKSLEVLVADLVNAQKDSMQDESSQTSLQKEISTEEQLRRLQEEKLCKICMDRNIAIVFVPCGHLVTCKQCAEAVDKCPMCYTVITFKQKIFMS
T2 sequence (Q92731 whole entry): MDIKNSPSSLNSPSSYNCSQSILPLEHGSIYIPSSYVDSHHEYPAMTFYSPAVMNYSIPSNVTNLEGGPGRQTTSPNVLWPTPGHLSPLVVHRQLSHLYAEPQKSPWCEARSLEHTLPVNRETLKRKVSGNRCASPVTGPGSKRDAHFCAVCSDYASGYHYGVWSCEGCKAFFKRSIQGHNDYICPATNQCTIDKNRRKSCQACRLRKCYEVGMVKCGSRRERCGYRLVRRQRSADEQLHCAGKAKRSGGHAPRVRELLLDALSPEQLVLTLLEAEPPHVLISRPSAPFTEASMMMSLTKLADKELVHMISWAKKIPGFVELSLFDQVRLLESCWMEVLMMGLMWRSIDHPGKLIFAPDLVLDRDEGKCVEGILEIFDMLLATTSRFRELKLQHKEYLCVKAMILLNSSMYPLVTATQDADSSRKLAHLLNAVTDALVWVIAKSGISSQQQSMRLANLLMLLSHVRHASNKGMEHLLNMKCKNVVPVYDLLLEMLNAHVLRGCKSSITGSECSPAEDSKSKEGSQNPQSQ
Sphingosine 1-phosphate receptor 2, sequence (O95136 whole entry): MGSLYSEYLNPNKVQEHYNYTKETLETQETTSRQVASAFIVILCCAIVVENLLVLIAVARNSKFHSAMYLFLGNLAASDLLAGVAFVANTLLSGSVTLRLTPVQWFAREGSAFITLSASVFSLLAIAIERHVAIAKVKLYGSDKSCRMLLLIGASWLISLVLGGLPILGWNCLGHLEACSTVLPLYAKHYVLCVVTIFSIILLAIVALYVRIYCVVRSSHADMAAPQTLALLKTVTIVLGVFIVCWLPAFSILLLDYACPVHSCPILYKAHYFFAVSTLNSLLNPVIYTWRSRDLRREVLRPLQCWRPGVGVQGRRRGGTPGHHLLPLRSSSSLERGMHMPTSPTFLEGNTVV
Protein Tat, sequence (P04608 whole entry): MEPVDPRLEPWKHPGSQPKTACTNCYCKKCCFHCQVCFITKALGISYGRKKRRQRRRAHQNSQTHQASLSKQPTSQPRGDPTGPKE
Genome polyprotein, sequence (P29990 2492-3391 limits assumed): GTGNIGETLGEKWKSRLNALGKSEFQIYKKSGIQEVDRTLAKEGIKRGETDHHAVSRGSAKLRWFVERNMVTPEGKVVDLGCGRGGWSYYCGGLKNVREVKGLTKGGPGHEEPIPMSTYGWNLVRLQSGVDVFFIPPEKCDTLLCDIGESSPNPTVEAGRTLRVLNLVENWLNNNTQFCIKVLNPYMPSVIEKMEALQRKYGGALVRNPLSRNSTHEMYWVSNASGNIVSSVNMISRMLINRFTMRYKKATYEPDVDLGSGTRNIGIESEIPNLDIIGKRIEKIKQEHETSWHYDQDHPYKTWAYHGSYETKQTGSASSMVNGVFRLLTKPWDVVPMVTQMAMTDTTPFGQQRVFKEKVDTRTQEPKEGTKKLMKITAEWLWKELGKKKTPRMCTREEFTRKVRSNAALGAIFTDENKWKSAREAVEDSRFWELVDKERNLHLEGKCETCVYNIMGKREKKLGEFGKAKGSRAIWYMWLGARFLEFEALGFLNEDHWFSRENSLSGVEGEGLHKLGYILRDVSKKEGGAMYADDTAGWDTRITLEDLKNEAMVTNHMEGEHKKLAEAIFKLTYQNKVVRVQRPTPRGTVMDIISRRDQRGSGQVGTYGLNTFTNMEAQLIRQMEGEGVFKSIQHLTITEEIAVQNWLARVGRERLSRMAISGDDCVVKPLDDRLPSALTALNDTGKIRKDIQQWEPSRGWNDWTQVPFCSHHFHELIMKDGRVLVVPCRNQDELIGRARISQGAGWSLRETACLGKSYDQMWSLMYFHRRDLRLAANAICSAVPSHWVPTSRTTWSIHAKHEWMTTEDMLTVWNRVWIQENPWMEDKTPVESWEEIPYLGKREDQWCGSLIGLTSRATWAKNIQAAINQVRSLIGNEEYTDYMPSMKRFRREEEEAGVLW
Luciferin 4-monooxygenase, sequence (P08659 whole entry): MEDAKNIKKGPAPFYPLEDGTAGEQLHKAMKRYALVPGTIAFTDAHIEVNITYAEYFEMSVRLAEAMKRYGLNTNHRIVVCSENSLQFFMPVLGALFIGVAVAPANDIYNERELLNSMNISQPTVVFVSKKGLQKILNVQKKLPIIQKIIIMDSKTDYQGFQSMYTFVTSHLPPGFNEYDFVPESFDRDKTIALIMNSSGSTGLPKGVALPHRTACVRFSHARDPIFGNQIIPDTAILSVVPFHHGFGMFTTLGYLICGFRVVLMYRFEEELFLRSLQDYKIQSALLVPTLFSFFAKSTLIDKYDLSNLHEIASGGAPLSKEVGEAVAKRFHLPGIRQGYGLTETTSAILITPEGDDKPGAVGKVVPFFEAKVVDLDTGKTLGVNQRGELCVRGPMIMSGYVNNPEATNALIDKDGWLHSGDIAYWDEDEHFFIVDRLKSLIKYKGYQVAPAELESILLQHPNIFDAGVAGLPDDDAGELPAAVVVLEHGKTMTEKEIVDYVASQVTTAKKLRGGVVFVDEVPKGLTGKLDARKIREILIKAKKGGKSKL
Polyadenylate-binding protein 1, sequence (P11940 whole entry): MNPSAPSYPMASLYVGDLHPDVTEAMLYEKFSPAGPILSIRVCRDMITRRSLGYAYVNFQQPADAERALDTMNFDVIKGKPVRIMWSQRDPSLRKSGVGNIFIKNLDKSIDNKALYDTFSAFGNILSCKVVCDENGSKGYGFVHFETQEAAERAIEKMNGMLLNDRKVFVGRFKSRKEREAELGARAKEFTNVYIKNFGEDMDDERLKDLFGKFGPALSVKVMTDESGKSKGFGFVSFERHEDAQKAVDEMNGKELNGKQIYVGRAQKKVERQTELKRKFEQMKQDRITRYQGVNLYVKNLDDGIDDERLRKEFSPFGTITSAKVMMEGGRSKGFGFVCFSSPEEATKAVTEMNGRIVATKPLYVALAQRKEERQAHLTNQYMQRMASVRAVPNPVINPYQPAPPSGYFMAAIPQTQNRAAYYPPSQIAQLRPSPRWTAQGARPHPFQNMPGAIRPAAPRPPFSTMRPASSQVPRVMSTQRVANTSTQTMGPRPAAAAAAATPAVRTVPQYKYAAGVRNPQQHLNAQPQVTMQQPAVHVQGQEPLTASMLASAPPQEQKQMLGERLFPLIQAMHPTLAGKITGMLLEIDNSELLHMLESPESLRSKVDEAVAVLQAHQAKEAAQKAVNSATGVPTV
Estrogen receptor, sequence (P03372 whole entry): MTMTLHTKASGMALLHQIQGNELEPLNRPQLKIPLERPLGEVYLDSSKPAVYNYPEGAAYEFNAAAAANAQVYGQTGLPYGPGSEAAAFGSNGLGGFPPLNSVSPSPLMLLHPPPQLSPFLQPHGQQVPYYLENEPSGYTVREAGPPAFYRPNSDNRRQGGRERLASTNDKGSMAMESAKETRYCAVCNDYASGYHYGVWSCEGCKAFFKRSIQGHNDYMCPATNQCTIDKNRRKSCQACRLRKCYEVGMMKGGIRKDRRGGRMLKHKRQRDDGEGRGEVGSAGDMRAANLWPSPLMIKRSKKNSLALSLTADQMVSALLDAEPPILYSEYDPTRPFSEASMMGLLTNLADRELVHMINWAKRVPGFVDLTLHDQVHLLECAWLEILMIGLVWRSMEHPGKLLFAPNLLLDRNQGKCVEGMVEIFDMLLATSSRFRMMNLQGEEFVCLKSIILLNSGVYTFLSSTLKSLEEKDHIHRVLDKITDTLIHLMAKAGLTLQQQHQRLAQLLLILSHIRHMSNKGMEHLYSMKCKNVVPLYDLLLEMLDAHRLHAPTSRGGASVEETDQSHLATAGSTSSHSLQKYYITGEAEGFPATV
Neuropeptide Y receptor type 2, sequence (P49146 whole entry): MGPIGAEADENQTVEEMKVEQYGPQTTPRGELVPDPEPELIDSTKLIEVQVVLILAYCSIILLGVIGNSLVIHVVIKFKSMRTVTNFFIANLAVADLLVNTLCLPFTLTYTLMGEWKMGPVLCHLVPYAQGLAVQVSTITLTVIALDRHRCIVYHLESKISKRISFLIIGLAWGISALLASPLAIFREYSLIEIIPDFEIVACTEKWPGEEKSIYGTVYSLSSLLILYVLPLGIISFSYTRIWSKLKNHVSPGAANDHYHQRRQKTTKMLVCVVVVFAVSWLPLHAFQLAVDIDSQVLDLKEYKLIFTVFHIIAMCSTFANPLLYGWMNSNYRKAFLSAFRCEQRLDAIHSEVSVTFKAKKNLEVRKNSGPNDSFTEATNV

Consider `O=C(CSc1nc2ccccc2o1)c1ccc2c(c1)OCCO2`, for which the IC50 in experiment [1] was 11.3 µM (not active); in experiment [2], 18.3 µM (not active); in experiment [3], > 100 µM (inactive).

For `Cc1occc1C(=O)Nc1ccccc1NC(=O)c1ccoc1C`, the IC50 in experiment [4] is > 50 µM (not active); in [5], > 50 µM (not active); in experiment [6], 0.155 µM (not active).

For `Cc1ccc2cc3c(NC(=O)c4cccnc4)nn(C)c3nc2c1`, the IC50 was > 100 µM (inactive) in experiment [7], > 100 µM (not active) in experiment [8], > 79 µM (inactive) in experiment [9] and > 100 µM (inactive) in [3].

`Cc1cc(C)nc(SCC(=O)OCC(=O)c2cc(C)n(Cc3ccccc3)c2C)n1`: in experiment [10], the EC50 is reported as > 30 µM (not active).

Take `C/N=c1\scc(-c2cccs2)n1/N=C/c1ccc(O)c(O)c1O`: the EC50 was > 150 µM (inactive) in experiment [11], > 38 µM (not active) in experiment [13], 0.636 µM (active) in experiment [14] and 1.53 µM (active) in [15]. Also, the IC50 was 59.2 µM (active) in experiment [12]; 15.5 µM (active) in experiment [16]; 7.08 µM (active) in experiment [17]; > 100 µM (inactive) in experiment [18]; 70.7 µM (active) in experiment [20]; 98.1 µM (inconclusive) in experiment [22]. The CC50 in [19] is 13 µM (active); in experiment [23], 12.1 µM (active); in experiment [24], > 40 µM (active). Besides, the AC50 in experiment [21] is > 100 µM (inactive).

For the origin of these results see ChEMBL document CHEMBL1201862, “PubChem BioAssay data set” (2004).
